The first data set in a line: Determination of the log P values by HPLC (formic acid method). It counts as physicochemical. The following applies: reversed-phase HPLC column (C 18), reversed-phase column (C 18), acidic range (pH 3.4), 55° C. How it is done: 1) Description of Method for Determination of the Log P Values (Formic Acid Method)
Eluents for determination in the acidic range (pH 3.4):
Eluent A: acetonitrile+1 ml of formic acid/liter. Eluent B: water+0.9 ml of formic acid/liter.
The lambda max values were determined in the maxima of the chromatographic signals using the UV spectra from 200 nm to 400 nm.
Molecule `Cc1cc(C(F)(F)F)c(C#N)c(-n2ccc(NC(=O)c3ccccc3C(F)(F)F)n2)n1` [Compound I-1-571, N-{1-[3-Cyano-6-methyl-4-(trifluoromethyl)pyridin-2-yl]-1H-pyrazol-3-yl}-2-(trifluoromethyl)benzamide] had a chromatographic logP of 3.49.

On to `Cc1ccc(-n2ccc(N)n2)c(Cl)c1` [1-(2-Chloro-4-methylphenyl)-1H-pyrazole-3-amine], for which the chromatographic logP was determined as 1.85. Consider `Nc1cnn(-c2ncc(F)cc2F)n1` [Ex.45-V, 2-(3,5-Difluoropyridin-2-yl)-2H-1,2,3-triazole-4-amine], for which the chromatographic logP worked out at 0.65. In turn, `CCN(CC)c1ccc(C#N)c(-n2ccc(NC(=O)c3ccccc3C(F)(F)F)n2)n1` [Compound I-1-568, N-{1-[3-Cyano-6-(diethylamino)pyridin-2-yl]-1H-pyrazol-3-yl}-2-(trifluoromethyl)benzamide] showed a chromatographic logP of 3.76. Same read-out and setting: for `O=C(Nc1nn(-c2ccccc2Cl)c2ccccc12)c1ccccc1C(F)(F)F` [Compound I-5-8, N-[1-(2-Chlorophenyl)-1H-indazol-3-yl]-2-(trifluoromethyl)benzamide] the value was 3.54; for `Nc1ccn(-c2cc(F)cnc2F)n1` [1-(2,5-difluoropyridin-3-yl)-1H-pyrazole-3-amine], 1.15; for `Cc1nc(F)c(-n2ccc(N)n2)cc1F` [1-(2,5-Difluoro-6-methylpyridin-3-yl)-1H-pyrazole-3-amine], 1.5.

Still in this data set, the particulars now being: reversed-phase column (C 18), acidic range (pH 3.4), 55° C.
Regarding `CC(C)Cn1ncc(I)c1C(=O)Nc1ccn(-c2c(F)cccc2F)n1` [Compound I-1-323], the “log P” value turned out to be 3.47. Still for that read-out and setting: with `COc1ccccc1-n1ccc(NC(=O)c2cccnc2C(F)(F)F)n1` [Compound I-1-407] the figure was 2.37; with `CC(C)Cc1nn(C)c(C(=O)Nc2ccn(-c3ncc(F)cc3F)n2)c1[N+](=O)[O-]` [Compound I-1-508], 3.02. With `O=C(Nc1ccn(-c2cccc(Cl)c2F)n1)c1ccccc1Br` [Compound I-1-557], the “log P” value is given as 3.31.

With `O=C(Nc1ccn(-c2c(F)cccc2F)n1)c1c(F)cccc1I` [Compound I-1-277], the “log P” value is recorded as 2.74. Take `O=C(NC1=NN(c2c(F)cccc2F)CC1)c1ccccc1I` [Compound I-4-4]: the “log P” value came to 2.31. As to `O=C(Nc1ccn(-c2nccnc2F)n1)c1ccccc1C(F)(F)F` [Compound I-1-173], the “log P” value stood at 2.24.

Turning to `Cc1ccc(-n2ccc(NC(=O)c3ccccc3Br)n2)c(Cl)c1` [Compound I-1-338], the “log P” value came to 3.23. Same read-out and setting: with `Cc1nnsc1C(=O)Nc1ccn(-c2c(F)cccc2F)n1` [Compound I-1-326] the figure was 2.15; with `CCc1cc(NC(=O)c2cccnc2C(F)(F)F)nn1-c1ccc(F)cc1F` [Compound I-1-204], 3.58; with `O=C(Nc1ccn(-c2ncccc2Cl)n1)c1c(F)cccc1F` [Compound I-1-564], 2.12.

As to `O=C(Nc1nn(-c2ncc(F)cc2F)cc1Cl)c1ccccc1C(F)(F)F` [Compound I-1-473], the “log P” value was 2.62. On to `Cc1ccsc1C(=O)Nc1ccn(-c2ccccc2Br)n1` [Compound I-1-60], for which the lipophilicity (log P) is listed as 3.16.

On to `O=C(Nc1ccn(-c2ncnc(F)c2F)n1)c1ccccc1Br` [Compound I-1-170], for which the “log P” value is given as 2.46. Still for that read-out and setting: for `O=C(Nc1nn(-c2ncc(F)cc2F)cc1[N+](=O)[O-])c1ccccc1C(F)(F)F` [Compound I-1-475] the value was 2.63. Regarding `O=C(Nc1ccn(-c2ncc(F)cc2F)n1)c1ccccc1SC(F)(F)F` [Compound I-1-149], the “log P” value is listed as 2.98. On the same count and under the same terms, for `O=C(Nc1ccn(-c2ncccc2F)n1)c1c(F)cccc1F` [Compound I-1-132] the value was 1.99. In the case of `Cn1cc([N+](=O)[O-])c(C(=O)Nc2ccn(-c3ncc(F)cc3F)n2)n1` [Compound I-1-453], the “log P” value was 1.69. With `Cc1nn(C)c(F)c1C(=O)Nc1ccn(-c2ccccc2Cl)n1` [Compound I-1-382], the “log P” value is 2.15. The same measure, in the same setting: for `N#Cc1c(F)cccc1-n1ccc(NC(=O)c2ccccc2Br)n1` [Compound I-1-620] the value was 2.61; for `O=C(Nc1nn(-c2ccccc2Cl)c2ccccc12)c1cccnc1C(F)(F)F` [Compound I-5-9], 3.11; for `O=C(Nc1ccn(-c2c(F)cccc2F)n1)c1cccc(F)c1C(F)(F)F` [Compound I-1-287], 2.76. Same read-out and setting: with `N#Cc1ccccc1-n1ccc(NC(=O)c2ccccc2C(F)(F)F)n1` [Compound I-1-9] the figure was 2.55.

In the case of `O=C(Nc1ccn(-c2nc(F)c(F)cc2F)n1)c1ncccc1C(F)(F)F` [Compound I-1-167], the “log P” value is on record as 3.88.

`O=C(Nc1ccn(-c2ncccc2Br)n1)c1ccccc1Cl` [Compound I-1-553]: the “log P” value was 2.23. In the case of `O=C(Nc1ccn(-c2ncc(F)cc2F)n1)c1ccccc1CC(F)(F)F` [Compound I-1-635], the “log P” value was found to be 2.80. On the same count and under the same terms, with `O=C(c1cccnc1Cl)N(C(=O)c1cccnc1Cl)c1nn(-c2ccccc2Br)nc1Cl` [Compound I-2-23] the figure was 3.64. On the same count and under the same terms, for `Cn1cnc(C(=O)Nc2ccn(-c3c(F)cccc3F)n2)c1[N+](=O)[O-]` [Compound I-1-242] the value was 1.81; for `O=C(Nc1ccn(-c2cccc(F)c2F)n1)c1ccccc1I` [Compound I-1-67], 3.10.

With `O=C(Nc1ccn(-c2c(F)cccc2F)n1)c1ccsc1I` [Compound I-1-105], the “log P” value is 2.76.

For `CCn1nc(C)c(Cl)c1C(=O)Nc1ccn(-c2ncc(F)cc2F)n1` [Compound I-1-527], the “log P” value was 2.93. As for `O=C(Nc1ccn(-c2ccccc2Br)n1)c1c(F)cccc1F` [Compound I-1-334], the “log P” value came out at 2.70. Still for that read-out and setting: for `Cn1nc(C(F)(F)F)c(C(=O)Nc2ccn(-c3ncc(F)cc3F)n2)c1F` [Compound I-1-158] the value was 2.36; for `Cc1cn(-c2ccccc2Cl)nc1NC(=O)c1ccccc1I` [Compound I-1-365], 2.99. Same read-out and setting: for `O=C(Nc1ccn(-c2cncc(F)n2)n1)c1ccccc1C(F)(F)F` [Compound I-1-401] the value was 3.33. Regarding `O=C(Nc1ccn(-c2ncc(F)cc2F)n1)c1ccccc1OC(F)F` [Compound I-1-459], the “log P” value worked out at 2.50. Same read-out and setting: with `O=C(Nc1cnn(-c2c(F)cccc2F)n1)c1ccncc1C(F)(F)F` [Compound I-2-81] the figure was 2.36; with `Cc1oc(C)c(C(=O)Nc2ccn(-c3c(F)cccc3F)n2)c1Br` [Compound I-1-304], 3.38.

For the molecule `CCc1nnccc1C(=O)Nc1ccn(-c2ncc(F)cc2F)n1` [Compound I-1-505], the lipophilicity (log P) was determined as 1.50. For the molecule `Cc1nn(-c2ccccc2Cl)nc1N(C(=O)c1ccccc1I)C(=O)c1ccccc1I` [Compound I-2-25], the “log P” value is reported as 4.68. `CCCN(C(=O)c1ccccc1C(F)(F)F)c1ccn(-c2c(F)cccc2F)n1` [Compound I-1-261]: the “log P” value turned out to be 3.64. Regarding `COc1ccc(Cl)c(C(=O)Nc2ccn(-c3ncc(F)cc3F)n2)c1` [Compound I-1-483], the “log P” value was found to be 2.51.

Consider `N#Cc1cc(F)ccc1-n1ccc(NC(=O)c2ccccc2C(F)(F)F)n1` [Compound I-1-626], for which the “log P” value is listed as 2.67. Consider `O=C(Nc1ccn(-c2ncccc2C(F)(F)F)n1)c1ccccc1C(F)(F)F` [Compound I-1-422], for which the “log P” value turned out to be 2.72. The log P values of the last two molecules are within 0.2 log units of each other. On the same count and under the same terms, for `Cc1cnoc1C(=O)Nc1ccn(-c2ncc(F)cc2F)n1` [Compound I-1-543] the value was 2.00; for `Cc1cc(NC(=O)c2ccccc2C(F)(F)F)nn1-c1ccccc1Cl` [Compound I-1-347], 2.58; for `O=C(Nc1ccn(-c2ncccc2Cl)n1)c1ccccc1C(F)(F)F` [Compound I-1-135], 2.41. Consider `Cc1cc(C(=O)Nc2ccn(-c3c(F)cccc3F)n2)n(C)n1` [Compound I-1-232], for which the “log P” value was 2.10. Same read-out and setting: for `O=C(Nc1ccn(-c2ccccc2Cl)n1)c1cccc(Cl)c1Cl` [Compound I-1-350] the value was 3.20.

Regarding `O=C(Nc1ccn(-c2ncc(Cl)cc2Cl)n1)c1cccc(F)c1C(F)(F)F` [Compound I-1-434], the “log P” value is on record as 2.61. As to `Cc1noc(C(F)F)c1C(=O)Nc1ccn(-c2c(F)cccc2F)n1` [Compound I-1-106], the “log P” value is 2.53. Take `O=C(Nc1ccn(-c2ccccc2Br)n1)c1cccnc1Cl` [Compound I-1-57]: the “log P” value is 2.37. For the molecule `O=C(Nc1cnn(-c2c(F)cccc2F)n1)c1c(F)cccc1F` [Compound I-2-77], the “log P” value came to 2.59. On the same count and under the same terms, for `Cc1cn(-c2ccccc2Cl)nc1NC(=O)c1ccccc1Br` [Compound I-1-354] the value was 2.86. Same read-out and setting: with `O=C(Nc1ccn(-c2ncc(Cl)cc2F)n1)c1ccccc1I` [Compound I-1-593] the figure was 2.89. `O=C(Nc1ccn(-c2cc(Cl)ccc2Cl)n1)c1ccccc1Br` [Compound I-1-119]: the “log P” value was 3.40. Still for that read-out and setting: for `N#Cc1cn(-c2ccccc2Cl)nc1NC(=O)c1ccccc1Cl` [Compound I-1-362] the value was 2.37; for `O=C(Nc1ccn(-c2ncc(F)cc2F)n1)c1c(C(F)(F)F)cc(F)c(F)c1F` [Compound I-1-516], 2.98; for `O=C(c1ccccc1I)N(C(=O)c1ccccc1I)c1nn(-c2ccccc2Br)nc1Cl` [Compound I-2-34], 5.06.

On to `O=C(Nc1ccn(-c2c(F)cccc2F)n1)c1cnccc1C(F)(F)F` [Compound I-1-94], for which the “log P” value worked out at 2.16.

With `Cc1ncccc1C(=O)Nc1ccn(-c2ccccc2Cl)n1` [Compound I-1-41], the “log P” value is given as 1.44.

On to `O=C(Nc1ccn(-c2cc(F)cnc2F)n1)c1ccccc1Cl` [Compound I-1-225], for which the “log P” value is recorded as 2.59.

In the case of `CS(=O)(=O)c1ccccc1-n1ccc(NC(=O)c2ccccc2Br)n1` [Compound I-1-182], the “log P” value is reported as 2.00.
